Measured values: PMC12459314, “Subcutaneous administration of a novel TRPM8 antagonist reverses cold hypersensitivity while attenuating the drop in core body temperature” (British journal of pharmacology, 2024)

Tests used:
[1] = tested on: oxaliplatin-treated mice; test: Oxaliplatin-induced cold hyperalgesia, cold-plantar test; type: in vivo, mouse
Procedure: Male and female C57 BL/6J mice from Taconic Labs were randomized by sex and cage to oxaliplatin or vehicle groups. Mice were weighed and injected intraperitoneally (i.p.) with either oxaliplatin (3 mg·kg^−1), or vehicle (5% dextrose) once per day every day for five consecutive days, followed by five days off, and then by a second round of once per day for five more days. Therefore, mice received a total of 10 injections for a total of 30 mg·kg^−1. The average weight of the females was 18 g while of the males was 20 g. Consequently, the females received an average of 540 and the males 600 μg in total. Behavioural testing was started after the second round of oxaliplatin/vehicle administration. The cold-plantar test was used to assess changes in cold sensitivity. A 3 ml syringe barrel filled with powdered dry ice was used as the stimulus. The dry ice is placed on the glass (borosilicate glass; thickness, 1/8 in. (3.17 mm); temperature, 75°F (24°C), measured with a calibrated IR temperature probe) beneath the hindpaw and the latency to withdraw was determined ([Yilmaz et al., 2017]). The baseline withdrawal latency was determined from the mean of three stimulus applications (at an inter-stimulus interval of ~5 min), while that at each time interval after the administration of a test agent was again the mean of three stimulus applications bracketing the time point in question (i.e., 5 min before, at the time point, and 5 min after). Mice in the two groups defined by oxaliplatin treatment were subsequently randomized to the order of treatment (with the TRPM8 antagonist VBJ103, or vehicle control). VBJ103 and vehicle solutions were administered subcutaneously (s.c.) at doses of 3, 10 and 30 mg·kg^−1. Mice were tested every other day over 7 days so that each mouse received all four injections (vehicle and three doses of VBJ103). In a second cohort of male (n = 8) and female (n = 8) mice, all mice were treated with oxaliplatin as described above, and then randomized to the order of treatment with vehicle, VBJ103 (30 mg·kg^−1) alone, the TRPA1 antagonist, HC-030031 (200 mg·kg^−1) alone, or the combination of VBJ103 (30 mg·kg^−1) and HC-030031 (200 mg·kg^−1). A third cohort of male (n = 7) and female (n = 8) mice was also treated with oxaliplatin as described above. […] All test agents in both follow-up cohorts were again administered in a volume of 5 ml·kg^−1. Mice in both follow-up cohorts were again tested every other day over a period of 6 days. Finally, a fourth cohort of male (n = 4) and female (n = 4) mice was used to confirm that 200 mg·kg^−1 HC-030031 was sufficient to block TRPA1. For this experiment, mice were randomized to the order of treatment with vehicle or HC-030031 ([…]).

[2] = tested on: AITC-treated mice; test: AITC-induced nociceptive behaviours; type: in vivo, mouse; settings: HC-030031 200 mg·kg−1, 30 min before AITC 3 mg·kg−1 i.p.; quantified over 20 min
Procedure: Male and female C57 BL/6J mice from Taconic Labs were randomized by sex and cage to oxaliplatin or vehicle groups. Mice were weighed and injected intraperitoneally (i.p.) with either oxaliplatin (3 mg·kg^−1), or vehicle (5% dextrose) once per day every day for five consecutive days, followed by five days off, and then by a second round of once per day for five more days. Therefore, mice received a total of 10 injections for a total of 30 mg·kg^−1. The average weight of the females was 18 g while of the males was 20 g. Consequently, the females received an average of 540 and the males 600 μg in total. Behavioural testing was started after the second round of oxaliplatin/vehicle administration. The cold-plantar test was used to assess changes in cold sensitivity. […] The dry ice is placed on the glass (borosilicate glass; thickness, 1/8 in. (3.17 mm); temperature, 75°F (24°C), measured with a calibrated IR temperature probe) beneath the hindpaw and the latency to withdraw was determined ([Yilmaz et al., 2017]). The baseline withdrawal latency was determined from the mean of three stimulus applications (at an inter-stimulus interval of ~5 min), while that at each time interval after the administration of a test agent was again the mean of three stimulus applications bracketing the time point in question (i.e., 5 min before, at the time point, and 5 min after). […]

[3] = biological target: T1, human TRPA1 (Homo sapiens, UniProt O75762); test: FlexStation Ca2+ flux assay in HEK293T cells transfected with human TRPA1; type: cell-based; settings: against an EC80 concentration (10 μM) of AITC
T1 construct: expressed in transfected cells; host or cells: HEK293T
Procedure: (§1) The human embryonic kidney cell line (HEK293T, CRL-1573, RRID: CVCL_0045) was purchased from the American Type Culture Collection (Manassas, USA) and was maintained in Dulbecco’s Minimal Essential Medium (DMEM, Cellgro10013CV, Corning, Tewksbury, USA) that was supplemented with 10% fetal bovine serum (Gemini Bio-products), 2-mM L-glutamine (Invitrogen) and 100 U/mL penicillin and streptomycin (Invitrogen) and cultured in an incubator at 37°C, 5% CO2 and 95% humidity. Human TRPV1 and TRPA1 plasmid DNA (gift from D. Julius) were transiently bulk transfected individually into HEK293T cells using the FuGene HD transfection reagent (TFR, Promega, Madison, WI, USA) at a 3:1 ratio (TFR:DNA). Transfected cells were seeded at 10,000 cells per well in a volume of 25 μl into black walled collagen coated 384-well microtiter plates and cultured in an incubator at 37°C, 5% CO2 and 95% humidity for 48 h prior to the initiation of calcium mobilization experiments performed on a FlexStation 3 (Molecular Devices, Sunnyvale, CA, USA) platform equipped with a 16-channel robotic pipettor head and FLIPR tetra pipette tips. At 46 h post transfection, cell monolayers were preloaded with 25 μl of the FLIPR Calcium 6 dye (Molecular Devices) for 2 h in an incubator at 37°C, 5% CO2 and 95% humidity according to the manufacturer’s instructions. The plate was transferred to a FlexStation 3 microplate reader. Relative fluorescence units (RFUs) (Ex. 485 nm, Em 525 nm) were then acquired at 37°C in the kinetic mode. The run time for the agonist (1st) and antagonist (2nd) reads were 60 s each, for a total run time of 120 s, with an interval of 3.1 s between reads in the same well to allow all 16 wells in a column to be read sequentially, and the photomultiplier tube (PMT) level was set at medium, with 6 flashes per read. Baseline Fluo-6 RFUs were acquired for 18 s prior to the addition of compound in both the agonist and antagonist reads. For the first addition agonist read, the volume in the well was 50 μl, the pipette height was set at 40 μl, and 12.5 μl of the test compound was delivered at a speed of 2 μl·s^−1 after the baseline RFU’s acquisition period at 19 s, and the RFUs were acquired for an additional 41 s. For the second addition antagonist read, the volume in the well was 62.5 μl, the pipette height was set at 40 μl, and 12.5 μl of an EC80 agonist concentration was delivered at a speed of 2 μl/s after the baseline RFU’s acquisition period at 19 s, and the RFUs were acquired for an additional 41 s. The FlexStation 3 instrument settings, automated pipetting and data collection were all controlled by the SoftMax Pro software, version 7.1.2.
To analyse the agonist and antagonist Ca^2+ mobilization Fluo-6 RFU’s kinetic data, the RFU’s readings acquired throughout the 60-s acquisition period for each individual well were divided by the average RFU values acquired during the first 18-s baseline acquisition period from the same well to calculate a fold over baseline (FOB) ratio.

[4] = Core body temperature and home cage activity by radiotelemetry (s.c., i.p.); type: in vivo, mouse; settings: capsaicin 1 mg·kg−1 s.c.
Procedure: Male and female C57Bl6J (Jackson Laboratories, Bar Harbor, USA, 8–12 weeks of age, 4 M:3F) were anaesthetised with isoflurane (2%–3% in 100% oxygen), and an HDX11 telemetry unit (Data Sciences) was inserted into the peritoneal cavity through a ventral midline incision. Animals were treated with buprenex (0.05 mg·kg^−1, s.c.every 8 h for 72 h) and enrofloxacin (2 mg·kg^−1, s.c.) and single-housed in a reverse light–dark cycle room (lights off 10 AM–10 PM). Mice were handled every day to acclimatise to injections, and experiments began 1 week later. All injections were performed between 1 and 2 PM. […] Body temperature was averaged into 5-min bins, whereas activity data were summed for the 5-min bin.

[5] = biological target: T2, human TRPV1 (Homo sapiens, UniProt Q8NER1); test: FlexStation Ca2+ flux assay in HEK293T cells transfected with human TRPV1; type: cell-based
T2 construct: expressed in transfected cells; host or cells: HEK293T
Procedure: as §1, with “Transfected cells were seeded at 10,000 cells per well in a volume of 25 μl into black walled collagen coated 384-well microtiter plates and cultured in an incubator at 37°C, 5% CO2 and 95% humidity for 48 h prior to the initiation of calcium mobilization experiments performed on a FlexStation 3 (Molecular Devices, Sunnyvale, CA, USA) platform equipped with a 16-channel robotic pipettor head and FLIPR tetra pipette tips. At 46 h post transfection, cell monolayers were preloaded with 25 μl of the FLIPR Calcium 6 dye (Molecular Devices) for 2 h in an incubator at 37°C, 5% CO2 and 95% humidity according to the manufacturer’s instructions.” left out, “The FlexStation 3 instrument settings, automated pipetting and data collection were all controlled by the SoftMax Pro software, version 7.1.2.” left out

[6] = Partition coefficient (logD), shake flask method; type: physicochemical; settings: n-octanol / pH 7.4 phosphate buffer
Procedure: The partition coefficient (logD) at pH 7.4 of VBJ103 was determined using the shake flask method by Absorption Systems (Exton, PA, USA). The buffer was prepared by combining 50 ml of 0.2-M solution of KH2PO4 with 150 ml of dH2O and then adjusting to pH 7.4 with 10-N NaOH. In a single incubation, 15 μl of a 10-mM DMSO solution of each test article was added to test tubes which contained 0.75 ml of n-octanol and 0.75 ml of pH 7.4 phosphate buffer. Testosterone was also introduced to each tube as an internal control, also at a dosing concentration of 100 μM. These samples were gently mixed on a benchtop rotator for 1 h at room temperature. The tubes were then removed from the rotator, and the aqueous and organic phases were allowed to separate for 1 h. An aliquot of the organic layer was taken and diluted 200-fold into a mixture of 1:1 buffer: acetonitrile (ACN). An aliquot of the aqueous layer was taken and diluted 2-fold, 10-fold and 200-fold into a mixture of 1:1 buffer: ACN. All samples were assayed by LC–MS/MS on a Thermo BDS Hypersil C18 column (30 × 2.1 mm, 3 μm) using electrospray ionization, as previously reported ([Journigan et al., 2020]).

[7] = ref Journigan et al, 2020; cited from earlier work
[8] = Core body temperature by radiotelemetry after i.c.v. administration; type: in vivo, mouse; settings: 3 nmol in 1 μL i.c.v.; within 60 min; in five of eight mice
Procedure: A second set of male C57Bl6J mice (Jackson Laboratories, n = 8) was implanted with telemetry as described above and a 26-gauge brain cannula (Plastics One) targeted at the lateral ventricle using coordinates relative to Bregma: 0.3 mm caudal, 1.0 mm lateral, 3.0 mm ventral. This second procedure was also performed under isoflurane anesthesia. The brain cannula was secured to the skull with two screws and dental cement. Animals were treated with buprenex (0.05 mg·kg^−1, s.c. every 8 h for 48 h) and enrofloxacin (2 mg·kg^−1, s.c.), singly housed and handled daily as described above. A single i.c.v. injection was performed every other day in a randomized order and included: (1) Galanin-like peptide (3 nmol/1 μL), (2) VBJ103 (306 nmol/1 μL) and (3) VBJ103 vehicle (1 μL). Galanin-like peptide produced a decrease in body temperature in five of eight mice. Therefore, body temperature data in response to VBJ103 and vehicle are presented in these five mice. These studies were carried out with a single dose of VBJ103 (306 nmol/1 μL or ~4 mg·kg^−1), which was the highest dose achievable due to constraints of the injection volume and the solubility of VBJ103.

T1 sequence (O75762 whole entry): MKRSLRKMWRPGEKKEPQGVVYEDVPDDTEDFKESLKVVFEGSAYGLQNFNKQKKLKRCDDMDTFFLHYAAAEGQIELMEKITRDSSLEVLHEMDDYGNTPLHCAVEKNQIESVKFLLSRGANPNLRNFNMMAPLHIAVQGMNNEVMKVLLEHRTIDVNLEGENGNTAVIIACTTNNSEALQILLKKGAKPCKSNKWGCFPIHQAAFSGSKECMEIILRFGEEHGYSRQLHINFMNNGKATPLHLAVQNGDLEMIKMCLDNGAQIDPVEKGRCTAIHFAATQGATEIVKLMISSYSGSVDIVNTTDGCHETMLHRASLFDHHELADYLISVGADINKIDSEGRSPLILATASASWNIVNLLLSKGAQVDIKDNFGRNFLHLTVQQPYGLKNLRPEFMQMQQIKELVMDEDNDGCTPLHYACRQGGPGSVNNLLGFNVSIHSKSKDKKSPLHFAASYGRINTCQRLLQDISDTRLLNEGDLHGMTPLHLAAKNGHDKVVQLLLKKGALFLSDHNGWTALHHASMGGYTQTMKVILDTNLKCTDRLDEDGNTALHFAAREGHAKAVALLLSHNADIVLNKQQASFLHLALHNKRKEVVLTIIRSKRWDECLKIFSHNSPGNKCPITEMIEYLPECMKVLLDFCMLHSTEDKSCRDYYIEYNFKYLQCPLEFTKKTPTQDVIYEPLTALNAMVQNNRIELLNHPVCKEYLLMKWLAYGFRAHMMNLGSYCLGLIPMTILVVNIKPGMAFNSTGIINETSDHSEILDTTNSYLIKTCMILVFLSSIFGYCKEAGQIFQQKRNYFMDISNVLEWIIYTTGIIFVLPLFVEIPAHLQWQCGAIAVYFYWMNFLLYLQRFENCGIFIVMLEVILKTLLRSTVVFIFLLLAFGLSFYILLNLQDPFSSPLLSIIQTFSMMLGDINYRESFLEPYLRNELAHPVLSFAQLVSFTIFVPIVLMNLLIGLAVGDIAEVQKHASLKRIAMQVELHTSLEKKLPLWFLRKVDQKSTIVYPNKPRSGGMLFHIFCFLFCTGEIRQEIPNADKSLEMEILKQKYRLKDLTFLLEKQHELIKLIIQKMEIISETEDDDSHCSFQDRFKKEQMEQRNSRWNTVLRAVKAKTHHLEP
T2 sequence (Q8NER1 whole entry): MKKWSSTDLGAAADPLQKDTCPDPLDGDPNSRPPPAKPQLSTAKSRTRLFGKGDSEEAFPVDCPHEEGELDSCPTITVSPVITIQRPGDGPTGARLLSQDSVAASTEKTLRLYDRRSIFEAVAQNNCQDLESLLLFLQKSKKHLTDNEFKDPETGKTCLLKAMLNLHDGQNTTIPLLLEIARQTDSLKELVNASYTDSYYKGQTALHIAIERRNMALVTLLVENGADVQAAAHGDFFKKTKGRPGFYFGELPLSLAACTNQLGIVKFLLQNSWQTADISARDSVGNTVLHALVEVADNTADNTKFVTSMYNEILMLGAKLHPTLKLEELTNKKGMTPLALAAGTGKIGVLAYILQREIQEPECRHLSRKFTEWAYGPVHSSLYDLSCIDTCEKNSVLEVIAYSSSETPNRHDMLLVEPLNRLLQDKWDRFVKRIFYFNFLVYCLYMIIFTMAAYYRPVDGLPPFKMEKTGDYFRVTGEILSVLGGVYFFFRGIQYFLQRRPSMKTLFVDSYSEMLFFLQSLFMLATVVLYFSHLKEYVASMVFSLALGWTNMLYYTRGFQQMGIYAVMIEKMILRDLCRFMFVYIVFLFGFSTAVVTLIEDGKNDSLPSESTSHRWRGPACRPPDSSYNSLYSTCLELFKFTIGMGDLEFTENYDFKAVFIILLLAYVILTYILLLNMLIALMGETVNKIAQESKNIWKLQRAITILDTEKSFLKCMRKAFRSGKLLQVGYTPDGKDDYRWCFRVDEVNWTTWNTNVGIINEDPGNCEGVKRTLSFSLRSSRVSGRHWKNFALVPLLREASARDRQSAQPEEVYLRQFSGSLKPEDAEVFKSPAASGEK

Fc1ccc(C(OCCN2CCN(CCCc3ccccc3)CC2)c2ccc(F)cc2)cc1 [GBR12909, reference compound]
influence on withdrawal latency to noxious cold stimuli ([1]; 20 mg·kg−1 alone, third cohort, vehicle 1:1 DMSO:water): no detectable influence

CC(C)c1ccc(NC(=O)Cn2cnc3c2c(=O)n(C)c(=O)n3C)cc1 [HC-030031, reference compound]
influence on oxaliplatin-induced cold hypersensitivity ([1]; 200 mg·kg−1 alone, second cohort, vehicle 0.5% Methocel): failed to detect an influence
AITC-induced nociceptive behaviours [2]: significantly attenuated
IC50 [3]: 2 ± 0.83 µM
maximum inhibition at TRPA1 [3]: 54%

COc1cc(CNC(=O)CCCC/C=C/C(C)C)ccc1O [capsaicin, reference compound]
time of peak drop in CBT [4]: ≤ 60 min
drop in CBT versus s.c. VBJ103 or PBMC ([4]; positive control): significantly larger drop

Oc1cc2c(cc1O)CN(C(=S)NCCc1ccc(Cl)cc1)CCC2 [capsazepine, reference compound]
IC50 [5]: 0.566 ± 0.086 µM

Cl.Cl.Cl.Cl.Cl.Cl.N.N.N.N.N.N.N.N.N.N.N.N.N.N.[O-2].[O-2].[Ru+3].[Ru+3].[Ru+4] [ruthenium red, reference compound]
IC50 [3]: 0.053 ± 0.007 µM

C[C@]12CC[C@H]3[C@@H](CCC4=CC(=O)CC[C@@]43C)[C@@H]1CC[C@@H]2O [testosterone, reference compound]
logD at 1 h [6]: 3.09
Mouse Liver microsomes, T1/2 [7]: 3.7 min

galanin-like peptide: peptide given i.c.v. as positive control for a decrease in body temperature (APAHRGRGGWTLNSAGYLLGPVLHLPQMGDQDGKRETALEILDLWKAIDGLPYSHPPQPS; Galanin-like peptide; UniProt Q9UBC7 25-84, looked up) [reference compound]
decrease in CBT [8]: > 3 °C
